How the values were obtained:
[1] = tested on: liaI expression (liaI::pMUTIN lacZ fusion, strain BFS2470; also liaH::pMUTIN, BFS2469); experiment: Disk-diffusion assay, blue ring on X-Gal plates; assay type: cell-based, Bacillus subtilis; conditions: for disk-diffusion assay: qualitative screen of β-Galactosidase activity, blue ring at edge of zone of inhibition, LB plates with X-Gal, strain BFS2470; for induction of liaI / liaH expression, in words: strains BFS2469 and BFS2470; for Disk-diffusion assay: key: −: no induction; +: induction of yvql expression
Source text: The pMUTIN-insertion results in a disruption of the targeted gene and generates a transcriptional fusion to lacZ thereby allowing detection of both antibiotic sensitivity (as defined by the zone of inhibition around the disk) and inducibility (by the formation of a blue ring at the edge of the zone of inhibition) (Cao et al., 2002, Mol Microbiol. 45: 1267-1276, the entire teaching of which is incorporated herein). The disruption of liaI and liaH had no effect on the sensitivity of the mutants to any of the antibiotics tested. […] Equivalent levels of induction were also observed with the PliaI-74-cat-lacZ fragment (in HB0950), albeit with lower fold-changes (See, Table 2). While the mode of action is different for these antibiotics, all four interfere with the lipid II cycle, essential for the biosynthesis of cell envelope polymers (Lazar et al., 2002, Curr. Opin. Chem. Biol. 6: 786-93).
PliaI induction assays: Screening for liaI induction was done by disk diffusion assay essentially as described (Cai, S. J., and M. Inouye, 2002, J Biol Chem 277:24155-61). B. subtilis strains were inoculated from a fresh overnight LB agar plate and grown to mid-log phase (OD600 ˜0.45) at 37 YC with shaking. 20 μl of the culture was mixed with 3 ml of 0.7% soft LB agar (containing 40 μg of X-Gal per plate) and poured onto the bottom agar. After cooling and drying of the plates (20 min at 37 YC), filter paper disks (6 mm diameter) carrying 5 μl of stock solution (antibiotics normally 100 mg/ml; lysozyme 10 mg/ml; tunicamycin, surfactants, uncouplers 5 mg/ml each; inhibitors of protein biosynthesis as given in the media and growth conditions section) were placed on top of the agar. The plates were incubated at 37 YC overnight. After 12-24 h incubation, the plates were scored for the appearance of a blue ring at or near the edge of the zone of growth inhibition produced by the diffusion of the antibiotics from the filter disk.

[2] = tested on: liaI expression (pMUTIN-derived lacZ fusion, strain BFS2470); experiment: microbe, parasite or virus in culture; conditions: for fold induction of liaI expression: text to FIG. 4: bacitracin 100 μg/mL, tunicamycin 50 μg/mL, vancomycin 2 μg/mL, 30 minutes, nisin, ramoplanin results not shown
Method: Disc-diffusion assays were used to determine the spectrum of stimuli that induce the expression of liaIH. The B. subtilis strains BFS2469 and BFS2470 (Table 2), harboring pMUTIN-insertions in liaH and liaI respectively, were plated on a medium containing the indicator dye X-gal and overlaid with filter disks impregnated with various antibiotics that interfere with cell wall biosynthesis. Specifically, cultures of B. subtilis strain BFS2469 (liaH::pMUTIN) and BFS2470 (liaI::pMUTIN) were grown in LB medium to midlog phase, 2 mL for the un-induced control sample were harvested, and the remaining culture was induced with the three antibiotics for 30 minutes, before the cells of the induced sample were harvested. All samples were taken in duplicate from two independent cultures and the standard deviation is indicated by error bars.
Measurement of induction by β-galactosidase assays: Cells were inoculated from fresh overnight LB-plates and grown in LB-medium at 37° C. with aeration until they reached an O.D.600=0.45. 2 mL of cultures were harvested (un-induced control) and the cell pellets were shock frozen and kept at −70° C. The cultures were induced by addition of antibiotics to a final concentration of: bacitracin (100 μg/mL), tunicamycin (50 μg/mL) or vancomycin (2 μg/mL) and incubated for additional 30 min at 37° C. 2 mL of the cultures were harvested as described above (induced sample). The pellets were re-suspended in 1 mL of working buffer and assayed for β-galactosidase activity as described with normalization to cell density (Miller, 1972, the entire teaching of which is incorporated herein by reference).
For quantitative measurements of β-galactosidase activity, cells were inoculated from fresh overnight LB-plates and grown in LB medium at 37 YC with aeration until they reached an OD600 of 0.45. 2 ml of the culture was harvested (un-induced control) and the cell pellets were frozen and kept at −80 YC. The cultures were induced by addition of the compound to be tested to the final concentration as described in the individual figure legends and incubated for an additional 30 min at 37 YC. 2 ml of the cultures were harvested as described above. The pellets were re-suspended in 1 ml of working buffer (60 mM Na2HPO4, 40 mMNaH2PO4, 10 mM KCl, 1 mM MgSO4, 4 mM DTT) and assayed for β-galactosidase activity as described with normalization to cell density Kobayashi, K., et al., 2001, J Bacteriol 183:7365-7370). […] A sample was taken after 30 min for β-galactosidase assay and the turbidity of the remaining culture was measured for at least 5 hours to monitor the concentration-dependent effects of the antibiotics on cell growth.

[3] = tested on: B. subtilis strain BFS2470; experiment: Concentration-dependent induction/killing experiments; assay type: cell-based, Bacillus subtilis; conditions: for lacZ-expression at higher concentration: FIG. 7a; for lacZ-expression at higher concentration / effect on cell growth / optical density: in words; for effect on cell growth / optical density: high concentrations, FIG. 7b; for antibiotic concentration at maximum induction of liaI: β-galactosidase assay after 30 min, 0.01 to 100 μg/ml tested
Method: Concentration-dependent induction/killing experiments were performed for bacitracin, nisin, ramoplanin and vancomycin as shown in FIG. 7. In all four cases the induction of liaI occurred in a concentration-dependent manner (FIG. 7a), reaching a maximum at an antibiotic concentration of about 10 μg/ml (1 μg/mL for vancomycin). The time of antibiotic addition is indicated by an arrow. The antibiotic concentrations affecting the induction of PliaI according to the β3-galactosidase assay are indicated by white symbols. The corresponding concentrations are: bacitracin ([…]), nisin (50, 70 and 100 μg/ml), ramoplanin (20, 50 and 100 μg/mL) and vancomycin (5, 10, 50 and 100 μg/mL).
This finding correlates well with the bactericidal effects of these antibiotics as inferred from the dramatic decrease of optical density: there is little effect of bacitracin and vancomycin on cell growth during the first 30-60 min after addition even at high concentrations (FIG. 7b).
The cultures were incubated with aeration at 37° C.

[4] = tested on: liaI expression in B. subtilis; conditions: 10 min after vancomycin addition; cited from earlier work

Q: With `CC1(C)S[C@@H]2[C@H](NC(=O)[C@H](N)c3ccccc3)C(=O)N2[C@H]1C(=O)O` [Ampicillin] as the compound, how does the disk-diffusion assay [1] read?
A: −

Q: With `CCCCCCCCCCCC[N+](C)(C)Cc1ccccc1.[Br-]` [BDMDDA-Br, Benzyldimethyldodecylammonium bromide] as the compound, how does the disk-diffusion assay [1] read?
A: −

Q: What does the source list for `CCCCCCCCCCCCCCCC[N+](C)(C)Cc1ccccc1.[Cl-]` [BDMHDA-Cl, Benzyldimethylhexadecylammonium chloride]?
A: disk-diffusion assay [1]: +; induction of liaI / liaH expression, in words [1]: moderately induced

Q: With `N#CC(C#N)=NNc1cccc(Cl)c1` [CCCP] as the compound, how does the disk-diffusion assay [1] read?
A: −

Q: What about the “induction of liaI / liaH expression, in words” value [1] of the same compound?
A: neither elevated liaIH expression

Q: Which disk-diffusion assay [1] does the source give for `O=C(N[C@H](CO)[C@H](O)c1ccc([N+](=O)[O-])cc1)C(Cl)Cl` [Chloramphenicol] here?
A: −

Q: For `N[C@@H]1CONC1=O` [D-cycloserin], which disk-diffusion assay [1] is on record?
A: −

Q: With `O=[N+]([O-])c1ccc(O)c([N+](=O)[O-])c1` [DNP] as the compound, how does the disk-diffusion assay [1] read?
A: −

Q: What about the “induction of liaI / liaH expression, in words” value [1] of the same compound?
A: neither elevated liaIH expression

Q: With `CCCCCCCCCCCCCCCC[N+](C)(C)C.[Br-]` [HDTMA-Br, Hexadecyltrimethylammonium] as the compound, how does the disk-diffusion assay [1] read?
A: −

Q: With `CC1(C)S[C@@H]2[C@H](NC(=O)Cc3ccccc3)C(=O)N2[C@H]1C(=O)O` [Penicillin G] as the compound, how does the disk-diffusion assay [1] read?
A: −

Q: With `CCCCCCCCCCCCOS(=O)(=O)[O-].[Na+]` [SDS, sodium dodecylsulfate] as the compound, how does the disk-diffusion assay [1] read?
A: −

Q: What does the source list for `CN[C@H](CC(C)C)C(=O)N[C@H]1C(=O)N[C@@H](CC(N)=O)C(=O)N[C@H]2C(=O)N[C@H]3C(=O)N[C@H](C(=O)N[C@H](C(=O)O)c4cc(O)cc(O)c4-c4cc3ccc4O)[C@H](O)c3ccc(c(Cl)c3)Oc3cc2cc(c3O[C@@H]2O[C@H](CO)[C@@H](O)[C@H](O)[C@H]2O[C@H]2C[C@](C)(N)[C@H](O)[C@H](C)O2)Oc2ccc(cc2Cl)[C@H]1O` [Vancomycin]?
A: fold induction at 2 µg/mL ([2]; Bacillus subtilis, 0.5 h, read-out: fold induction of liaI expression): ~65; lacZ-expression at higher concentration [3]: remained elevated; effect on cell growth / optical density [3]: little effect; antibiotic concentration at maximum induction of liaI [3]: ~1 µg/mL; disk-diffusion assay [1]: +; induction of liaI / liaH expression, in words [1]: induced; increase in liaI expression level [4]: more than 100 fold

Q: For `NC[C@H]1O[C@H](O[C@H]2[C@H](O)[C@@H](O[C@H]3O[C@H](CO)[C@@H](O)[C@H](N)[C@H]3O)[C@H](N)C[C@@H]2N)[C@H](O)[C@@H](O)[C@@H]1O` [kanamycin], which disk-diffusion assay [1] is on record?
A: −

Q: Which disk-diffusion assay [1] does the source give for `CO[C@H]1/C=C/O[C@@]2(C)Oc3c(C)c(O)c4c(O)c(c(/C=N/N5CCN(C)CC5)c(O)c4c3C2=O)NC(=O)/C(C)=C\C=C\[C@H](C)[C@H](O)[C@@H](C)[C@@H](O)[C@@H](C)[C@H](OC(C)=O)[C@@H]1C` [rifampicin] here?
A: −

Q: Which disk-diffusion assay [1] does the source give for `CN[C@@H]1[C@H](O)[C@H](NC)[C@H]2O[C@@]3(O)C(=O)C[C@@H](C)O[C@H]3O[C@@H]2[C@H]1O` [spectinomycin] here?
A: −

Q: For `[H]/N=C(/N)N[C@H]1[C@H](O)[C@@H](O)[C@H](O[C@@H]2O[C@@H](C)[C@](O)(C=O)[C@H]2O[C@@H]2O[C@@H](CO)[C@H](O)[C@@H](O)[C@@H]2NC)[C@@H](N/C(N)=N\[H])[C@@H]1O` [streptomycin], which disk-diffusion assay [1] is on record?
A: −

Q: Which disk-diffusion assay [1] does the source give for `CN(C)[C@@H]1C(O)=C(C(N)=O)C(=O)[C@@]2(O)C(O)=C3C(=O)c4c(O)cccc4[C@@](C)(O)[C@H]3C[C@@H]12` [tetracycline] here?
A: −

Q: Which disk-diffusion assay [1] does the source give for Lysozyme here?
A: −

Q: What about the “induction of liaI / liaH expression, in words” value [1] of the same compound?
A: ineffective as an inducer

Q: Which disk-diffusion assay [1] does the source give for Moenomycin here?
A: −

Q: For Polymyxin B, which disk-diffusion assay [1] is on record?
A: −

Q: For Ramoplanin, which “fold induction of liaI expression” value [2] is on record?
A: 420 fold

Q: And the “lacZ-expression at higher concentration” value [3]?
A: strong decrease down to un-induced levels

Q: And the “effect on cell growth / optical density” value [3]?
A: rapid cell lysis

Q: What about the “antibiotic concentration at maximum induction of liaI” value [3] of the same compound?
A: about 10 μg/ml

Q: What about the disk-diffusion assay [1] of the same compound?
A: +

Q: And the “induction of liaI / liaH expression, in words” value [1]?
A: induced

Q: For Triton X100, which disk-diffusion assay [1] is on record?
A: −

Q: For Tunicamycin, which “fold induction of liaI expression” value [2] is on record?
A: three-fold

Q: What about the disk-diffusion assay [1] of the same compound?
A: +
